In US6114572A, “Substituted phenols and thiophenols useful as antioxidant agents” (priority 1997, dated 2000):
Read-outs that look alike come from different tables or passages of the source.

What was measured:
[1] = system: oxidation of serum lipids; test: TBARS assay (oxidation of serum lipids) in male Sprague-Dawley rats; assay type: in vivo; conditions: feed or water, 96 h, rat serum, 4 days, N = 5, CuSO4-initiated, 3 hr, read-out: TBARS, percent of control
Protocol: (§1) A typical experiment consists of 4-6 groups of rats (N=5 per group) with 1 group being a control which receives no MDL compound and the other groups being treated with 0.3% MDL compound. […] Mix the MDL compound with approximately 50 grams of food using a mortar and pestle. This is added to the remainder of the food and mixed for 3 hours on a rotary mixer. In the morning of day 5, anesthetize non-fasted rats with carbon dioxide, and collect blood by cardiac puncture. Sacrifice rats by cervical dislocation. Record body weights and liver weights in grams. Record food consumption as grams·day^-1 ·rat^-1. Deaths are recorded as mortality. Use aliquots of fresh serum for clinical chemistries, thiobarbituric acid reactive substances (TBARS) and conjugated diene measurements. Freeze aliquots of serum (~0.5 mL) and whole livers at -20° C. for compound and metabolite concentration determination at a later time.
In this assay the oxidation of serum lipids is initiated with CuSO4, resulting in the formation of aldehydes, such as malondialdehyde (MDA). Upon incubation with thiobarbituric acid, the absorbance of the aldehydes can be detected at 530-540 nm. […] Measure TBARS as follows: mix 100 μL of serum with 400 μL of a 5 mmol CuSO4 solution and incubate at 37° C. for 3 hr. Stop the reactions by addition of 1.0 mL of 20% trichloroacetic acid. […] Centrifuge samples briefly to pellet undissolved material, and transfer the supernatants to a 96-well microtiter plate. Measure absorbances at 540 nm using a Biotek model EL311 microplate reader. The nmoles of MDA produced are calculated from a standard curve of 0 to 10 nmoles of MDA prepared from malonaldehyde bis(dimethylacetal). Serum samples from treated rats are compared to serum samples from control rats that received no MDL compound.

[2] = HPLC quantitation of compound and metabolite concentration in rat serum and liver; conditions: in vivo; for concentration at 96 h: po, 0.3% in diet, 4 days
Description: (§2) A typical experiment consists of 4-6 groups of rats (N=5 per group) with 1 group being a control which receives no MDL compound and the other groups being treated with 0.3% MDL compound. Some of the compounds are either repeated at 0.3% or evaluated again at the lower dose of 0.1%. House Male Sprague-Dawley rats, 50-100 g, (Harlan Laboratories, Indianapolis, Ind.) in groups of 5, feeding ad libitum water and Purina Rodent chow (#5002) with or without MDL compound as a dietary admixture for 4 days. Make dietary admixtures (0.3%) by mixing 1.2 grams of an MDL compound with 400 grams of Purina rodent chow (#5002). Mix the MDL compound with approximately 50 grams of food using a mortar and pestle. This is added to the remainder of the food and mixed for 3 hours on a rotary mixer. In the morning of day 5, anesthetize non-fasted rats with carbon dioxide, and collect blood by cardiac puncture. Sacrifice rats by cervical dislocation. Record body weights and liver weights in grams. Record food consumption as grams·day^-1 ·rat^-1. Deaths are recorded as mortality. Use aliquots of fresh serum for clinical chemistries, thiobarbituric acid reactive substances (TBARS) and conjugated diene measurements. Freeze aliquots of serum (~0.5 mL) and whole livers at -20° C. for compound and metabolite concentration determination at a later time.
Determine serum and liver concentrations of parent compound and the metabolites, bisphenol and diphenoquinone, by reverse phase HPLC using a Waters 990 Powerline system. Homegenize livers (1 gram samples) with 5.0 mL PBS, pH 7.4, using a Polytron tissue homogenizer at setting 5 for 20-30 seconds. Extract serum or liver homogenates as follows: add 100 μL of either serum or homogenate to 2.0 mL diethyl ether:ethanol (3:1) while vortexing the tube. Cap the sample tubes and centrifuge for 10 min at 5° C. at 3500 rpm in a Beckman GPKR centrifuge with a GH 3.7 rotor. Transfer the supernatants to clean tubes and dry under N2. Reconstitute samples with 200 μL of acetonitrile:hexane:0.1 M ammonium acetate (90:6.5:3.5, by vol.). Then, inject 100 μL onto a Waters Deltapak C18-300 Å column, and elute with an 83% acetonitrile:17% water mobile phase at a flow rate of 1.5 mL/min. Record absorbances at the wavelengths of 240, 254, and 420nm. Calculate compound concentrations from known quantities of authentic parent compounds after correction for recovery. […]. Calculate concentrations as μg/mL of serum and μg/g of liver.

Male Sprague-Dawley Rats = test: Serum clinical chemistries in male Sprague-Dawley rats; assay type: in vivo
Protocol: Measurement of Antioxidant Activity and Bioavailability of Compounds of Formula (1) By In Vivo Screening in Male Sprague-Dawley Rats
as §1
Allow blood to clot at room temperature for 30 minutes. Obtain serum after centrifugation for 10 min at 4° C. at 3000 rpm in a Beckman J-6M/E centrifuge with a JS-4.2 rotor. […] Calculate ALP, ALT, and AST as units/L. Calculate cholesterol, triglycerides, and glucose as mg/dL.

oxidation of lipids = test: Conjugated diene lag phase determination in rat serum; assay type: in vivo, Sprague-Dawley rat; conditions: rat pooled serum, 0.3% in diet, 4 days; mean of 2 determinations; not normalized to control
Description: as §2, with “Use aliquots of fresh serum for clinical chemistries, thiobarbituric acid reactive substances (TBARS) and conjugated diene measurements. Freeze aliquots of serum (~0.5 mL) and whole livers at -20° C. for compound and metabolite concentration determination at a later time.” left out
Conjugated diene lag phase is another indicator of the oxidation of lipids. […] Measure the absorbances of all cuvettes and set the instrument baseline to zero using the lowest absorbing sample. […] Record the absorbance of each cuvette at 2 min intervals for a period of 840 min. […]

[3] = Animal parameters (food, body weight, liver weight, mortality) in male Sprague-Dawley rats; assay type: in vivo; conditions: for mortality at 96 h: po, read-out: mortality (deaths per group); for mortality at 96 h / body wt., percent of control: rat
Description: as §2

[4] = Animal parameters (food, body weight, liver weight) in cholesterol-fed rabbits; assay type: in vivo, New Zealand White rabbit; conditions: 0.4% in diet, 7 days, N = 5
Description: (§3) Perform five independent experiments in the following manner. Each study has a control group and 1-5 groups treated with MDL compound (N=5 per group). Feed Female New Zealand White rabbits (Hazelton, ~2.0-2.3 kg) 0.2% cholesterol enriched rabbit chow (Purina #5322) with or without 0.4% MDL compound. Solubilize the MDL compounds in 100% ethanol. Spray the chow with the MDL mixtures and allow to dry overnight in a chemical fume hood. Spray control chow with ethanol. Feed rabbits 100 grams food per day for 7 days (0.6% MDL 103,491 were fed for 14 days); make available water ad libitum. On day 7, bleed (~2 mL) rabbits (fasted overnight) from a marginal ear vein. Euthanize rabbits by carbon dioxide overdose. Record the total body and liver weights in grams. Record food as grams·days^-1 ·rabbits^-1. Use aliquots of fresh serum for clinical chemistries, lipoprotein cholesterol determination, thiobarbituric acid reactive substances (TBARS) and compound and metabolite concentrations in serum. Freeze livers (~5 gram aliquots) at -20° C. for compound and metabolite concentration determination at a later time.

[5] = system: Cholesterol-Fed Female New Zealand White Rabbits; test: Serum cholesterol, lipoprotein cholesterol and triglycerides in cholesterol-fed rabbits; assay type: in vivo, New Zealand White rabbit; conditions: rabbit serum, 0.4% in diet, 7 days, N = 5, fasted overnight
Protocol: Perform five independent experiments in the following manner. […] Solubilize the MDL compounds in 100% ethanol. Spray the chow with the MDL mixtures and allow to dry overnight in a chemical fume hood. Spray control chow with ethanol. […] On day 7, bleed (~2 mL) rabbits (fasted overnight) from a marginal ear vein. Euthanize rabbits by carbon dioxide overdose. Record the total body and liver weights in grams. Record food as grams·days^-1 ·rabbits^-1. Use aliquots of fresh serum for clinical chemistries, lipoprotein cholesterol determination, thiobarbituric acid reactive substances (TBARS) and compound and metabolite concentrations in serum. Freeze livers (~5 gram aliquots) at -20° C. for compound and metabolite concentration determination at a later time.
Allow blood to clot at room temperature for 30 minutes. Obtain serum after centrifugation for 10 min at 5° C. at 3000 rpm in a Beckman GPKR centrifuge with a GH rotor. […] Calculate cholesterol and triglycerides as mg/dL.
Separate lipoprotein fractions (very low density lipoprotein, VLDL, low density lipoprotein, LDL and high density lipoprotein, HDL) on a Sepharose 6HR column (1×30 cm, Pharmacia) attached to a Waters Powerline HPLC system. Inject serum (50 μL) onto the column and elute with phosphate buffered saline, pH 7.4, at a flow rate of 0.5 mL/min. […] Measure absorbance at 500 nm. The lipoprotein subfractions are quantitated as follows:

[6] = system: oxidation of serum lipids; test: TBARS assay (oxidation of serum lipids) in cholesterol-fed rabbits; assay type: in vivo, New Zealand White rabbit; conditions: rabbit serum, 0.4% in diet, 7 days, N = 5, CuSO4-initiated, 5 hr
Description: as §3, with “Freeze livers (~5 gram aliquots) at -20° C. for compound and metabolite concentration determination at a later time.” left out
TBARS are a qualitative indication of the oxidation of lipids in a sample. […] Upon incubation with thiobarbituric acid, the absorbance of the aldehydes can be detected at 530-540 nm. […] Measure absorbances at 540 nm using a Biotek model EL311 microplate reader. The nmoles of MDA produced are calculated from a standard curve of 0 to 10 nmoles of MDA prepared from malonaldehyde bis(dimethylacetal). […]

[7] = mean N = 5, read-out: Serum Parent (parent compound concentration)
[8] = rat serum, 0.3% in diet, 4 days, N = 5
[9] = in vivo, 0.3% in diet, 4 days, N = 5

| SMILES | response vs control in vivo at 0.3 % in diet [1] | Liver Bis (bisphenol concentration) ([2]; 5760 min) | Liver Quin (diphenoquinone concentration) ([2]; 5760 min) | Serum Bis (bisphenol concentration) ([2]; 5760 min) | Serum Quin (diphenoquinone concentration) ([2]; 5760 min) | concentration at 96 h [2, 7] | ALP (alkaline phosphatase), percent of control (Male Sprague-Dawley Rats; [8]) | AST (aspartate aminotransferase), percent of control (Male Sprague-Dawley Rats; [8]) | mortality at 96 h [3, 9] | body wt., percent of control ([3]; 0.3% in diet, 4 days, N = 5) | also measured |
| --- | --- | --- | --- | --- | --- | --- | --- | --- | --- | --- | --- |
| CC(C)=CCCC(C)CCOc1ccc(O)c(C(C)(C)C)c1 (centres unmarked) [105,411] | 29% | 0 | 0 | 0 | 0 | 1100 ng/mL | 76% | 87% | 0% | 101% | Liver Parent (parent compound concentration) ([2]; 5760 min): 0; ALT (alanine aminotransferase), percent of control (Male Sprague-Dawley Rats; [8]): 122%; GLUC (glucose), percent of control (Male Sprague-Dawley Rats; rat, in vivo): 96%; CONJ. DIENE (conjugated diene lag phase) (oxidation of lipids): 400 min; food (grams eaten per day per rat), percent of control ([3]; in vivo): 95% |
| CC(C)=CCC[C@H](C)CCOc1cc(C(C)(C)C)c(O)c(C(C)(C)C)c1 [103,294] | 18% | 0 | 0 | 0 | 0 | 21700 ng/mL | 124% | 88% | 0% | 101% | food (grams eaten per day per rabbit), percent of control [4]: 103%; body wt., percent of control ([4]; rabbit): 100%; lw/bw (liver weight/body weight), percent of control ([4]; rabbit): 105%; LDL cholesterol, percent of control [5]: 82%; chol tot. (total cholesterol), percent of control [5]: 94%; concentration at 96 h ([2]; mean N = 5, read-out: Liver Parent (parent compound concentration)): 64600 ng/g; GLUC (glucose), percent of control (Male Sprague-Dawley Rats; [8]): 103%; ALT (alanine aminotransferase), percent of control (Male Sprague-Dawley Rats; rat, in vivo): 132%; food (grams eaten per day per rat), percent of control ([3]; 0.3% in diet, 4 days, N = 5): 108%; TBARS, percent of control [6]: 35% |
